Results published in US6958333B1, “Biarylurea derivatives” (Banyu Pharmaceutical Co., Ltd., priority 1999, dated 2005).

How the values were obtained:
MKN-1 cells = test: Activity of inhibiting cell growth, MKN-1 (sulforhodamine B); format: cell-based; settings: Homo sapiens, MKN-1, 72 h, cell growth inhibition, 3 days incubation
Experimental: (§1) Activity of Inhibiting Cell Growth
(§2) • (1) Method of cell culture
(§3) Clinical separative cancer cells HCT116 were cultured in Dulbecco′ modified Eagle's medium with 10% Fetal Bovine Serum, and clinical separative cancer cells MKN-1 were cultured in RPMI1640 medium added 10% Fetal Bovine Serum. Both cells were cultured at 37° C., under 5% CO2 and saturated steam. • (2) Determination of activity of inhibiting cell growth
(§4) The activity of inhibiting cell growth was measured using the modified method of Skehan's method (J. Natl. Cancer Inst. Vol.82, p.1107-1112, 1990), and so on. One hundred μL each of the culture medium containing 1×10^3 HCT116 or MKN-1 as living cells was pipetted to 96-well dish and cultured over night. […] Then, the diluted compounds or DMSO as the control, was added to the medium. One hundred μL of the medium added with the diluted drug solutions or DMSO was added to the cells cultured in 96-well dish, and was incubated for further 3 days.
(§5) To each well, 50 μL of trichloroacetic acid (50%) was added to fix the cells. The cells were stained using 0.4% sulforhodamine B. Sulforhodamine B was extracted with 10 mM tris buffer, and the optical density at 560 nm was compared with that of control at 450 nm.

HCT116 cells = test: Activity of inhibiting cell growth, HCT116 (sulforhodamine B); format: cell-based; settings: Homo sapiens, HCT-116, 72 h, cell growth inhibition, 3 days incubation
Experimental: as §1, §2, §3, §4, §5

cyclin D2-Cdk4 = cyclin D2-Cdk4 (Homo sapiens, UniProt P11802); test: Enzyme assay of cyclin D2-Cdk4 (33P-ATP phosphorylation of RB peptide substrate); format: biochemical; settings: Table 1, second value column (head repeats cyclin D1-Cdk4); 50 μM ATP, 100 μM peptide substrate, 30° C., 45 min
Chain of cyclin D2-Cdk4 (P11802 whole entry): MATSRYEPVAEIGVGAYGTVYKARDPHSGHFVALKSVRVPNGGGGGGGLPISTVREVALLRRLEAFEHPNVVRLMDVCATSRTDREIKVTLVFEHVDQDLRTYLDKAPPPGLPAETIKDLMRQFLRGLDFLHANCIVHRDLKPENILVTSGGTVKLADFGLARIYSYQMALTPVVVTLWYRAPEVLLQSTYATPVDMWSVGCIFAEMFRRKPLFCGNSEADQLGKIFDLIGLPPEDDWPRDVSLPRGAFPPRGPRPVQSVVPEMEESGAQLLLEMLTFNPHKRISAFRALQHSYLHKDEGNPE
Excerpt: • (1) Preparation of cyclin D1-Cdk4 and cyclin D2-Cdk4
cDNA of Cdk4 and its activator cyclin D1 or D2 was subcloned into a baculovirus-expression vector to make recombinant baculovirus and then, they are co-infected to insect cell Sf9 to express an active complex of cyclin D1-Cdk4 or cyclin D2-Cdk4. The cells were recovered and solubilized and purified by HPLC columnchromatography (The the enzyme are EMBO J. vol.15, p.7060-7069, 1996). • (2) Enzyme assay of cyclin D1-Cdk4 and cyclin D2-Cdk4
The reaction was carried out using the modified procedure of Kitagawa's method (Oncogene, vol.7, p.1067-1074, 1992). The volume of the reaction solution was 21.1 μL. The reaction buffer (R buffer) consisted of 20 mM Tri-HCl buffer (pH7.4)/10 mM MgCl2/4.5 mM 2-mercaptoethanol/1 mM ethyleneglycolbis(β-aminoethylether)-N,N,N′,N′-tetracetic acid (EGTA). Purified cyclin D1-Cdk4 or D2-Cdk4, 100 μM peptide substrate, 50 μM unlabeled ATP and ATP labeled with 1 μCi γ-33P(2000-4000 Ci/mmole) were added to the reaction mixture. The mixture was incubated at 30° C. for 45 min. 10 μL of phosphate buffer (350 mM) was added to stop the reaction. The peptide substrate was absorbed to P81 paper and its radioactivity was measured by a liquid scintillation counter. ATP labeled with γ-33P was purchased from Daiich Chemicals, Ltd. […]

cyclin D3-Cdk6 = biological target: T1, cyclin D3-Cdk6 (Homo sapiens, UniProt Q00534); test: Enzyme assay of cyclin D3-Cdk6 (33P-ATP phosphorylation of peptide substrate); format: biochemical; settings: 100 μM peptide substrate, 50 μM ATP, 30° C.
T1 construct: made in house; host or cells: Sf9 insect cells, baculovirus co-infection
T1 sequence (Q00534 whole entry): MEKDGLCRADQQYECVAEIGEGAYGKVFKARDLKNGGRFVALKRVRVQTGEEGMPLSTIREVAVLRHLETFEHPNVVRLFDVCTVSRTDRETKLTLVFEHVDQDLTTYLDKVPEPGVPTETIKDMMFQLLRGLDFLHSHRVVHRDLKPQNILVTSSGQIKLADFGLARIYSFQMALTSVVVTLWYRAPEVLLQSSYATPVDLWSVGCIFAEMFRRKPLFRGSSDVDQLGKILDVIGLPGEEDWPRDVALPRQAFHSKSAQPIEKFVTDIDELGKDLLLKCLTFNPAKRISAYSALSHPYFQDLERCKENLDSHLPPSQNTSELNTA
T1 sequence (P30281 whole entry partner): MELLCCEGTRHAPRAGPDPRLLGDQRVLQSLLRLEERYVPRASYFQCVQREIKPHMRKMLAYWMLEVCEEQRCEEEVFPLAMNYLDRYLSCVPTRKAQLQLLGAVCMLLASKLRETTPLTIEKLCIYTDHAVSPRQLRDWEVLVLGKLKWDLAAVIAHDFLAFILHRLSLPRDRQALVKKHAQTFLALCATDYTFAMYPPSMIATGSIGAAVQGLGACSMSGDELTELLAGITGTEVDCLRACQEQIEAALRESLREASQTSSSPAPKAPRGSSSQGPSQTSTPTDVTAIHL
Excerpt: • (1) Preparation of cyclin D1-Cdk6 and cyclin D3-Cdk6
As the same method of preparing cyclin D1-Cdk4, cDNA of Cdk6 and its activator cyclin D1 or D3 was recombined with baculovirus-expression vector to make recombinant baculovirus. This was co-infected to insect cell Sf9 to express an active complex of cyclin D1-Cdk6 or cyclin D3-Cdk6. The cells were recovered and solubilized and purified by HPLC columnchromatography. • (2) Enzyme assay of cyclin D1-Cdk6 and cyclin D3-Cdk6.
A peptide substrate used for cyclin D1-Cdk6 was synthetic peptide ([…] (SEQ ID No. 2) and that used for cyclin D3-Cdk6 was synthetic peptide ([…] (SEQ ID No. 3) (The EMBO J. vol. 15, p. 7060-7069, 1996).
The reaction was carried out using the modified procedure of Kitagawa's method (Oncogene, vol.7, p.1067-1074, 1992). The volume of the reaction solution was 21.1 μL. Purified cyclin D1-Cdk6 in R buffer and 400 μM peptide substrate or cyclin D3-Cdk6 and 100 μM pipetide substrate, unlabeled ATP (50 μM) and 1 μCi ATP labeled with γ-33P(2000-4000 Ci/mmole) were added to the reaction mixture. The mixture was incubated at 30° C. for 20 or 45 min. Then, 10 μL of phosphate buffer (350 mM) was added to stop the reaction. The peptide substrate was absorbed to P81 paper and its radioactivity was measured by a liquid scintillation counter. […]

Compound | IC50 (MKN-1 cells) | IC50 (HCT116 cells) | IC50 (cyclin D2-Cdk4) | IC50 (cyclin D3-Cdk6)
CN1CC[C@H](c2c(O)cc(O)c3c(=O)cc(-c4ccccc4Cl)oc23)[C@H](O)C1 (racemic) [(±)flavopiridol, flavopiridol] | 0.87 µM | 0.15 µM |  | 
O=C(Nc1cc(C2CCN(Cc3ccccc3)C2)ccn1)Nc1cccc2c1C1CCCN1C2=O (stereo not shown) [Working Example No. 165, N′-(pyrrolidino[2,1-b]isoindolin-4-on-8-yl)-N-(4-(N-benzylpyrrolidin-3-yl)pyridin-2-yl)urea] |  |  | 0.016 µM | 0.013 µM
